Laboratory results published in publication PMC7934871 (JCI Insight, 2021).

Key:
[1] = tested on: pY694-STAT5; test: Western blotting of p-STAT5 in HCT116 cells; assay type: cell-based, human; conditions: HCT116, 1 µM, 48 hours
Procedure: (§1) Whole cell lysates or tissue homogenates were prepared by using RIPA lysis buffer (50 mM Tris at pH 7.4, 150 mM NaCl, 1 mM EDTA, 0.5% NP-40, 1 mM NaF, 15% glycerol, and 20 mM β-glycerophosphate). A protease inhibitor cocktail (Mini Protease Inhibitor Cocktail; Roche) and a tyrosine phosphatase inhibitor, sodium orthovanadate (Na3VO4, 1 mM), were added freshly to the lysis buffer. Protein amounts were determined by BCA using a Thermo Fisher Scientific kit. Normalized protein amounts were subjected to an SDS-PAGE and transferred onto a nitrocellulose membrane for Western blotting. Proteins were visualized with a chemiluminescent detection kit (Pierce, Thermo Fisher Scientific). The protein levels for STAT1 (sc-346, E-23), STAT3 (sc-482, C-20), STAT5 (sc-74442, A-9), Crm1 (exportin 1) (sc-5595, H-300), CAS (exportin 2) (sc-271537, H-2), exportin 5 (sc-66885, H-300), and exportin 7 (sc-98639, H-82) were determined using antibodies from Santa Cruz Biotechnology Inc. Anti–exportin 3 (exportin T, 630622, LOS1 05-1525), anti–exportin 4 (3499-1), and anti–exportin 6 (11408-1-AP) were from MilliporeSigma, Epitomics, and Proteintech, respectively. […]
(§2) Supplemental Figure 4 (related to Figure 1). […] Phosphorylation of STAT3 at Y705 and STAT5 at Y694 was detected by Western blotting after 48 hours treatment of PS-acet.-STAT3 peptide (1 µM) or napabucasin (1 µM) in HCT116 cells. […]

[2] = tested on: pY705-STAT3; test: Western blotting of p-STAT3 in HCT116 cells; assay type: cell-based, human; conditions: HCT116, 1 µM, 48 hours
Text: Figure 3 PS-acet.-STAT3 peptide inhibits STAT3 activity and downregulates the expression of STAT3 targets. (A) Downregulation of STAT3 activity and its downstream target proteins shown in human HCT116 colorectal cancer cells by Western blotting (data represent 1 of the 3 experiments, n = 3). PO-acet.-STAT3 and PS-STAT3-K685R peptides were used in parallel as controls. (B) STAT3 inhibition regulated the expression of proliferation and apoptotic genes, assessed by real-time quantitative PCR. Data present mean ± SD, n = 3 independent experiments, 1-way ANOVA; ***P < 0.005; **P < 0.01. […] For p53 promoter assay, data represent 3 replicates in 3 independent experiments (n = 9). For cell proliferation assay, data represent 3 independent experiments. SD is shown (n = 3). One-way ANOVA; ***P < 0.005; **P < 0.01.
as §1, with “Proteins were visualized with a chemiluminescent detection kit (Pierce, Thermo Fisher Scientific).” left out
as §2

[3] = tested on: B16 melanoma; test: B16 melanoma lung metastasis in C57BL/6 mice; assay type: in vivo, mouse; conditions: B16 i.v. in C57BL/6 mice, 1 mg/kg i.v. every other day, gp100 staining, n = 5
Text: Figure 7 PS-acet.-STAT3 peptide treatment efficiently reduces mouse melanoma lung metastasis. (A) Systemic PS-acet.-STAT3 peptide treatment reduces B16 lung nodules in syngeneic mouse model compared with control treatments. The B16 lung nodules in mice treated with the indicated STAT3 peptides and vehicle (n = 5) were visualized by IF staining of gp100 and quantified by confocal microscopy and Zen software. The levels of phosphorylation of STAT3 (p-STAT3), CD69, and Foxp3 in the tumor or tumor-infiltrating CD8^+ T or CD4^+ T cells were detected by IF staining followed by confocal microscopy in B16 metastatic lung nodules upon treatments with vehicle, PO- or PS-acet.-STAT3, PS-STAT3-K685R, or PS-unacet.-STAT3 peptides as indicated. Images are representative of 5 lungs per experimental group. Scale bars: 20 μm (CD69, CD8, CD4, p-STAT3, and Foxp3) and 100 μm (gp100). White arrows indicate the immune cells. Insets: original magnification, ×40. (B) The graphs show the quantification of gp100 and p-STAT3 expression levels (MFI) or the cell population (%) of CD69^+ in CD8^+ or p-STAT3^+ in CD4^+ or Foxp3^+ in CD4^+ (data represent 5 lungs per group, n = 5). SD is shown. One-way ANOVA; ****P < 0.001.
Mouse care and experimental procedures were performed under pathogen-free conditions in accordance with established institutional guidance and approved IACUC protocols from Research Animal Care Committee of the City of Hope. For s.c. tumor challenge, 5 × 10^6 HCT116 cells were injected into NSG mice from The Jackson Laboratory or animal resource core facility at the City of Hope. After tumors reached an average size of 80~100 mm^3, mice were locally or intravenously treated with 1 mg/kg of PO- or PS-peptides (Anaspec) every day or every other day. Control animals were treated with the equal volume of HBSS (Invitrogen, Thermo Fisher Scientific). Tumor growth was measured by a digital caliper every other day. To study the effects of the modified peptides at protein and gene levels, mice were euthanized 4–6 weeks after tumor injection. B16 melanoma lung metastasis was performed by injecting 0.5 × 10^6 B16 cells into bloodstream of C57BL/6 mice (The Jackson Laboratory). One day after tumor challenge, mice were treated intravenously (retro-orbitally) with 1 mg/kg of PO- or PS-acet.-STAT3, PS-unacet.-STAT3, or PS-STAT3-K685R peptides every other day until the endpoint as indicated. Control mice were treated with HBSS. Lungs were excised from the mice, and B16 nodules were visualized by gp100 staining. Lungs were then analyzed for immune responses by immunostaining followed by confocal imaging. For mouse PDAC model, 5 × 10^6 KPC mouse cells were mixed with Matrigel and subcutaneously injected into C57BL/6 mice (The Jackson Laboratory). After tumors reached an average size of 80~100 mm^3, mice were intravenously treated with 1 mg/kg of PO- or PS-Gp130, PS-oligo, PS-SC-MYC, PS-MYC. or combined PS-Gp130/PS-MYC (0.5 mg/kg, 0.5 mg/kg) (Anaspec) every other day for 18 days. Control animals were treated with the equal volume of HBSS (Invitrogen, Thermo Fisher Scientific). Tumor growth was measured by a digital caliper every other day. To study the effects of the modified peptides at protein and gene levels, mice were euthanized at the endpoint as indicated.

[4] = tested on: HCT116 xenograft tumors; test: HCT116 xenograft in NSG mice, peritumoral treatment; assay type: in vivo, mouse; conditions: HCT116 s.c. in NSG mice, 1 mg/kg peritumoral every day, n = 4
Procedure: Mouse care and experimental procedures were performed under pathogen-free conditions in accordance with established institutional guidance and approved IACUC protocols from Research Animal Care Committee of the City of Hope. For s.c. tumor challenge, 5 × 10^6 HCT116 cells were injected into NSG mice from The Jackson Laboratory or animal resource core facility at the City of Hope. After tumors reached an average size of 80~100 mm^3, mice were locally or intravenously treated with 1 mg/kg of PO- or PS-peptides (Anaspec) every day or every other day. Control animals were treated with the equal volume of HBSS (Invitrogen, Thermo Fisher Scientific). Tumor growth was measured by a digital caliper every other day. […] Lungs were then analyzed for immune responses by immunostaining followed by confocal imaging. […] Tumor growth was measured by a digital caliper every other day. […]
(B) PS-acet.-STAT3 peptide downregulates STAT3 phosphorylation, assessed by Western blotting using tumor homogenates prepared from tumors shown in A.
(C) mRNA levels for CASP9, BIRC5 and BCL2L1 in the same tumor tissues described above were assessed by qRT-PCR. […]
(D) Treatments with PS-acet.-STAT3 peptide induced cell death, indicated by H&E staining (upper panel). […] Right panels represent quantification of Ki-67 protein levels and mean of vessel diameter (data include 5 fields of view per group). […]

[5] = Systemic toxicity in mice; assay type: in vivo; conditions: 1 mg/kg i.v. every other day for 3 weeks, n = 3
Procedure: To evaluate the potential toxicity associated with systemic treatments of PS-peptide, PS-acet.-STAT3 peptide, PS-oligo, naive peptide, and PO- or PS-acet.-STAT3 peptide were given to the mice at 1 mg/kg through i.v. every other day for 3 weeks.
Supplemental Figure 10 (related to Figure 3). The systemic toxicity of PS-acet.-peptide.
The bodyweight (A), blood count (B) and organ morphology (H&E staining; spleen, kidney and liver) (C) of the mice (n=3) treated with HBSS (1), PS-oligo (2), naïve peptide (3), PO-peptide (4) or PS-peptide (5) every other day at 1 mg/kg (per treatment) for 3 weeks.
Individual value of each mouse is shown as a dot on the graph. The red lines on each graph in (B) indicate the normal ranges. Blood count was done by a veterinary hematology analyzer. The images shown in (C) are the represented H&E section from three mice (n=3). Enlarged view are shown below as indicated. Scale bar, 50 µm.
Aftabizadeh and Li et al., Figure S10

Row | Compound | p-STAT5 (Y694) level [1] | phosphorylated STAT3 (p-STAT3, Y705) level [2] | metastatic lung nodules [3] | tumor growth [4] | behavior, body weight, blood counts [5] | morphology and cell death in liver, spleen, kidney tissues (H&E) [5]
1 | CC(=O)c1cc2c(o1)C(=O)c1ccccc1C2=O [napabucasin, reference compound] | inhibited | inhibited | – | – | – | –
2 | PDIPKEEAFGK685(Ac)YCRPESQEHPC-linker-TCCATGAGCTTCCTGATGCT [PO-acet.-STAT3 peptide] | – | – | few antitumor effects | not | No behavior changes, body weight loss, or abnormal blood counts | no significant morphology change or cell death
